Source: patent publication US4920103A, “Modifications of mycinose and 3-O-demethylmycinose in tylosin-type macrolides” (Eli Lilly and Company, priority 1986, dated 1990)
Converted amounts (≈) assume the structure as drawn. Read-outs that look alike come from different tables or passages of the source.

Key:
[1] = system: Staphylococcus aureus X1.1; experiment: MIC, standard agar-dilution assay, S. aureus X1.1; type: cell-based
Protocol: (§1) The MIC's in Table II were determined by standard agar-dilution assays. The MIC's in Table III were obtained using conventional broth-dilution microtiter tests.

[2] = system: Haemophilus influenzae C.L.; experiment: MIC, standard agar-dilution assay, H. influenzae C.L.; type: cell-based
Protocol: as §1

Escherichia coli EC14 = experiment: MIC, standard agar-dilution assay, E. coli EC14; type: cell-based; details: agar-dilution, read-out: MIC
Protocol: as §1

[3] = system: Staphylococcus aureus X400; experiment: MIC, standard agar-dilution assay, S. aureus X400; type: cell-based
Protocol: as §1

[4] = system: Staphylococcus aureus S13E; experiment: MIC, standard agar-dilution assay, S. aureus S13E; type: cell-based
Protocol: as §1

[5] = system: Streptococcus Group D X66; experiment: MIC, standard agar-dilution assay, Streptococcus Group D X66; type: cell-based
Protocol: as §1

[6] = system: Streptococcus pyogenes C203; experiment: MIC, standard agar-dilution assay, S. pyogenes C203; type: cell-based; details: Streptococcus pyogenes, C203
Protocol: as §1

[7] = system: Staphylococcus epidermidis EPI1; experiment: MIC, standard agar-dilution assay, S. epidermidis EPI1; type: cell-based
Protocol: as §1

[8] = system: Streptococcus pneumoniae Park I; experiment: MIC, standard agar-dilution assay, S. pneumoniae Park I; type: cell-based; details: Streptococcus pneumoniae
Protocol: as §1

[9] = system: Staphylococcus epidermidis 222; experiment: MIC, standard agar-dilution assay, S. epidermidis 222; type: cell-based
Protocol: as §1

[10] = system: Klebsiella pneumoniae X68; experiment: MIC, standard agar-dilution assay, K. pneumoniae X68; type: cell-based; details: agar-dilution, read-out: MIC
Protocol: as §1

[11] = system: Staphylococcus aureus V41; experiment: MIC, standard agar-dilution assay, S. aureus V41; type: cell-based; details: Staphylococcus aureus, V41
Protocol: as §1

[12] = system: Streptococcus Group D 2041; experiment: MIC, standard agar-dilution assay, Streptococcus Group D 2041; type: cell-based; details: GROUPD2041
Protocol: as §1

[13] = system: Pseudomonas aeruginosa X239; experiment: MIC, standard agar-dilution assay, P. aeruginosa X239; type: cell-based; details: agar-dilution, read-out: MIC
Protocol: as §1

[14] = system: Streptococcus pyogenes C203; experiment: Protection of mice experimentally infected with Streptococcus pyogenes C203; type: in vivo; details: Streptococcus pyogenes, doses given 1 and 4 hours postinfection, read-out: ED50
Protocol: The formula 1 compounds have shown in vivo antimicrobial activity against experimentally-induced infections in laboratory animals. When two doses of test compound were administered to mice experimentally infected with Streptococcus pyogenes C203, the activity observed was measured as an ED50 value [effective dose in mg/kg to protect 50% of the test animals: see Warren Wick, et al., J. Bacteriol. 81, 233-235 (1961)].
^a mg/kg × 2; doses given 1 and 4 hours postinfection

[15] = system: Haemophilus influenzae 76; experiment: MIC, standard agar-dilution assay, H. influenzae 76; type: cell-based
Protocol: as §1

[16] = agar-dilution, ampicillin-sensitive strain, read-out: MIC
[17] = agar-dilution, ampicillin-resistant strain, read-out: MIC

SMILES	MIC [1] [µg/mL]	MIC [2, 16] [µg/mL]	MIC (Escherichia coli EC14) [µg/mL]	MIC [3] [µg/mL]	MIC [4] [µg/mL]	MIC [5] [µg/mL]	MIC [6] [µg/mL]	MIC [7] [µg/mL]	MIC [8] [µg/mL]	MIC [9] [µg/mL]	MIC [10] [µg/mL]	MIC [11] [µg/mL]	MIC [12] [µg/mL]	MIC [13] [µg/mL]	ED50 ([14]; C203, oral) [mg/kg]	ED50 ([14]; C203, sc, subcutaneous) [mg/kg]	MIC [15, 17] [µg/mL]	MIC ([5]; agar-dilution, read-out: MIC) [µg/mL]	MIC [2] [µg/mL]	MIC [15] [µg/mL]
CCC1OC(=O)CC(O)C(C)C(OC2OC(C)C(O)C(N(C)C)C2O)C(CCOc2ccccc2)CC(C)C(=O)C=CC(C)=CC1COC1OC(C)C(N2CCCCC2)C(OC)C1OC (centres unmarked) [Compound 42, 4"-Deoxy-20-DH-20-O-phenyl-4"-(piperidin-1-yl)desmycosin]	4 (≈ 4.36 µM)	> 128	> 128	4 (≈ 4.36 µM)	2 (≈ 2.18 µM)	16 (≈ 17.4 µM)	2 (≈ 2.18 µM)	4 (≈ 4.36 µM)	2 (≈ 2.18 µM)	2 (≈ 2.18 µM)	> 128	4 (≈ 4.36 µM)	32 (≈ 34.9 µM)	> 128	> 100	> 10	> 128	–	–	–
CCC1OC(=O)CC(O)C(C)C(OC2OC(C)C(O)C(N(C)C)C2O)C(CCOc2ccccc2)CC(C)C(=O)C=CC(C)=CC1COC1OC(C)C(N=[N+]=[N-])C(OC)C1OC (centres unmarked) [Compound 25, 4"-Azido-4"-deoxy-20-DH-20-O-phenyl-desmycosin]	4 (≈ 4.57 µM)	> 128	> 128	4 (≈ 4.57 µM)	4 (≈ 4.57 µM)	–	8 (≈ 9.14 µM)	4 (≈ 4.57 µM)	8 (≈ 9.14 µM)	4 (≈ 4.57 µM)	> 128	4 (≈ 4.57 µM)	64 (≈ 73.1 µM)	> 128	64	> 10	> 128	16 (≈ 18.3 µM)	–	–
CCC1OC(=O)CC(O)C(C)C(OC2OC(C)C(O)C(N(C)C)C2O)C(CCOc2ccccc2)CC(C)C(=O)C=CC(C)=CC1COC1OC(C)C(NCc2ccccc2)C(OC)C1OC (centres unmarked) [Compound 47, 4"-Benzylamino-4"-deoxy-20-DH-20-O-phenyl-desmycosin]	2 (≈ 2.13 µM)	128 (≈ 136 µM)	> 128	2 (≈ 2.13 µM)	2 (≈ 2.13 µM)	8 (≈ 8.52 µM)	2 (≈ 2.13 µM)	2 (≈ 2.13 µM)	2 (≈ 2.13 µM)	2 (≈ 2.13 µM)	> 128	2 (≈ 2.13 µM)	32 (≈ 34.1 µM)	> 128	70.7	> 10	128 (≈ 136 µM)	–	–	–
CCC1OC(=O)CC(O)C(C)C(OC2OC(C)C(O)C(N(C)C)C2O)C(CCOc2ccccc2)CC(C)C(=O)C=CC(C)=CC1COC1OC(C)CC(=O)C1OC (centres unmarked) [Compound 52, 4"-Deoxy-3"-oxo-20-DH-20-O-phenyl-lactenocin]	0.5 (≈ 0.611 µM)	–	> 128	0.5 (≈ 0.611 µM)	0.5 (≈ 0.611 µM)	2 (≈ 2.44 µM)	1 (≈ 1.22 µM)	0.5 (≈ 0.611 µM)	2 (≈ 2.44 µM)	0.25 (≈ 0.306 µM)	> 128	0.5 (≈ 0.611 µM)	2 (≈ 2.44 µM)	> 128	79.4	10	–	–	64 (≈ 78.2 µM)	64 (≈ 78.2 µM)
